# Results from US20240024273A1, “TOPICAL ADMINISTRATION OF 2-(DIETHYLAMINO)ETHYL 2-(4-ISOBUTYLPHENYL)PROPRIONATE FOR TREATMENT OF DISEASES” (TECHFIELDS PHARMA CO., LTD., priority 2020, published 2024).
# Experiments:
# Type in all cases: in vivo, human
# [1] = tested on: osteoarthritis of the knee; experiment: Second Phase 2 study: WOMAC (VAS) pain subscale score
# From the text: This is a Phase 2, multicenter, randomized, double blind (within dose), Ibuprofen-placebo controlled, parallel group, dose range finding study to evaluate the efficacy, safety, and PK of 2-(diethylamino)ethyl 2-(4-isobutylphenyl)propionate spray in adult subjects with clinically symptomatic OA of the knee. For subjects with bilateral knee pain, both knees will be treated, but the most symptomatic knee (ie, the most painful knee as measured by the Western Ontario and McMaster University Osteoarthritis Index [WOMAC® 3.1] pain subscale score at Screening) will be designated as the target knee for efficacy analyses. For subjects with unilateral knee pain, only the symptomatic (target) knee will be treated.
# (§1) The VAS version of the WOMAC will be used for the Primary and Secondary Efficacy Endpoints. Efficacy endpoints will be assessed at Screening and Baseline (Day 1) and at the Week 2, Week 4, Week 8, and Week 12/EOS visits.
# The Primary Efficacy Endpoint is the change from Baseline in the WOMAC (VAS) pain subscale score for the target knee at […] of treatment.
# (§2) 4.9.2. Secondary Efficacy Endpoints: • 1. Change from Baseline in the WOMAC (VAS) pain subscale score for the target knee at 2, 8, and 12 weeks of treatment; • 2. Change from Baseline in the WOMAC (VAS) stiffness subscale scores for the target knee and WOMAC (VAS) functional ability subscale scores at 2, 4, 8, and 12 weeks of treatment; • 3. Change from Baseline in the overall WOMAC (VAS) score at 2, 4, 8, and 12 weeks of treatment; • 4. Subject's global assessment of disease status of the target knee at 2, 4, 8, and 12 weeks of treatment; • 5. Subject's global assessment of response to therapy of the target knee at 2, 4, 8, and 12 weeks of treatment; • 6. Amount of rescue medication (acetaminophen) consumed per day for target knee pain.
# The Primary Efficacy Endpoint is change from Baseline in the WOMAC (VAS) pain subscale score for the target knee at 4 weeks of treatment, and will be analyzed using an analysis of covariance (ANCOVA). Treatment will be included as a fixed class effect and WOMAC Baseline pain subscale score as covariates. The primary comparisons of interest will be the difference between active Group A (4.375 mg 2-(diethylamino)ethyl 2-(4-isobutylphenyl)propionate/knee) and combined placebo, active Group B (8.75 mg 2-(diethylamino)ethyl 2-(4-isobutylphenyl)propionate/knee) and combined placebo, and active Group C (17.5 mg 2-(diethylamino)ethyl 2-(4-isobutylphenyl)propionate/knee) and combined placebo.
# [2] = tested on: osteoarthritis of the knee; experiment: Second Phase 2 study: WOMAC stiffness subscale score
# From the text: For subjects with bilateral knee pain, both knees will be treated, but the most symptomatic knee (ie, the most painful knee as measured by the Western Ontario and McMaster University Osteoarthritis Index [WOMAC® 3.1] pain subscale score at Screening) will be designated as the target knee for efficacy analyses. For subjects with unilateral knee pain, only the symptomatic (target) knee will be treated.
# as §1, §2
# The Secondary Efficacy Endpoints, change from Baseline in the WOMAC subscale scores for pain, stiffness, and functional ability, and overall WOMAC score at 2, 4, 8, and 12 weeks of treatment, will be analyzed using the same methods as for the Primary Efficacy Endpoint.
# [3] = tested on: osteoarthritis of the knee; experiment: Second Phase 2 study: Investigator's global assessment of disease status (IGADS); conditions: Week 12
# [4] = tested on: osteoarthritis of the knee; experiment: Second Phase 2 study: Investigator's assessment of response to therapy (IART); conditions: Week 12
# From the text: 4.9.3. Exploratory Efficacy Endpoints: • 1. Investigator's global assessment of response to therapy of the target knee at 2, 4, 8, and 12 weeks of treatment; • 2. Change from Baseline over time in overall WOMAC (VAS) score for the target knee after the treatment is stopped for 2 weeks.
# [5] = Baseline, oral, 3 × 400 mg (n = 20), first 130 subjects
# [6] = Week 12, oral, 3 × 400 mg (n = 20), first 130 subjects
# [7] = all subjects, Oral Ibuprofen 3 × 400 mg, n = 48, Week 12
# [8] = all subjects, Oral Ibuprofen 3 × 400 mg, n = 48 vs. Placebo n = 48
# [9] = oral 3×400 mg, first 130 subjects
# [10] = oral, 3 x 400 mg (n = 20), first 130 subjects
# [11] = all subjects, Oral Ibuprofen 3 × 400 mg, n = 48
structure (smiles),measurement,setting,value
"CC(C)Cc1ccc(C(C)C(=O)O)cc1 (stereo not shown) [Ibuprofen, 2-(4-isobutylphenyl)propionic acid, reference compound]","WOMAC Pain Subscale Scores, Baseline (LS Mean)",[1]; [5],67.0 mm
same,"WOMAC Pain Subscale Scores, % of improvement from Placebo",[1]; [6],0.9%
same,"WOMAC Pain Subscale Scores, % of improvement from baseline",[1]; [6],−32.2%
same,"WOMAC Pain Subscale Scores, Changes from Baseline (LS Mean)",[1]; [6],−21.6 mm
same,"WOMAC Pain Subscale Scores, Different from placebo (LS Mean)",[1]; [6],−0.5 mm
same,"WOMAC Pain Subscale Scores, Week 12 (LS Mean)",[1]; [6],45.4 mm
same,"WOMAC Pain Subscale Scores, % of improvement from Placebo",[1]; [7],−4.5%
same,"WOMAC Pain Subscale Scores, % of improvement from baseline",[1]; [7],−41.2%
same,"WOMAC Pain Subscale Scores, Changes from Baseline (LS Mean)",[1]; [7],−25.4 mm
same,"WOMAC Pain Subscale Scores, Week 12 (LS Mean)",[1]; [7],36.3 mm
same,"WOMAC Pain, difference vs. Placebo",[1]; [8],−2.8 mm
same,"WOMAC pain, difference from placebo",[1]; [9],−0.5 mm
same,"WOMAC Stiffness Subscale Scores, Baseline (LS Mean)",[2]; [5],56.4 mm
same,"WOMAC Stiffness Subscale Scores, % of improvement from Placebo",[2]; [6],−10.3%
same,"WOMAC Stiffness Subscale Scores, Changes from Baseline (LS Mean)",[2]; [6],−20.6 mm
same,"WOMAC Stiffness Subscale Scores, Different from placebo (LS Mean)",[2]; [6],−6.6 mm
same,"WOMAC Stiffness Subscale Scores, Week 12 (LS Mean)",[2]; [6],35.8 mm
same,"WOMAC Stiffness Subscale Scores, % of improvement from Placebo",[2]; [7],−6.9%
same,"WOMAC Stiffness Subscale Scores, % of improvement from baseline",[2]; [7],−39.3%
same,"WOMAC Stiffness Subscale Scores, Changes from Baseline (LS Mean)",[2]; [7],−20.3 mm
same,"WOMAC Stiffness Subscale Scores, Week 12 (LS Mean)",[2]; [7],31.3 mm
same,"WOMAC Stiffness, difference vs. Placebo",[2]; [8],−3.8 mm
same,"WOMAC stiffness, difference from placebo",[2]; [9],−6.7 mm
same,IGADS: Good and Very good,[3]; [10],40.0%
same,IGADS: Poor and Very Poor,[3]; [10],15.0%
same,IGADS: fair,[3]; [10],45.0%
same,"IGADS, Good and Very good",[3]; [11],39.6%
same,"IGADS, Poor and Very Poor",[3]; [11],4.1%
same,IART: Good and Very good,[4]; [10],50.0%
same,IART: Poor and Very Poor,[4]; [10],25.0%
same,IART: fair,[4]; [10],25.0%
same,"IART, Good and Very good",[4]; [11],47.9%
same,"IART, Poor and Very Poor",[4]; [11],8.3%
same,"IART, fair",[4]; [11],43.8%
